Measured values reported in US9901639B2, “Bone marrow origin progenitor cell or endothelial progenitor cell in combination with DNMT1 gene therapy for vascular repair in metabolic disease” (Temple University—of the Commonwealth System of Higher …, priority 2015, dated 2018).

Legend:
Type in all cases: cell-based, human
[1] = tested on: hEPCs; experiment: hEPC adhesion assay on fibronectin; settings: L-Hcy 250 μmol/L, 48 h
Excerpt: (§1) In this study EPCs refer to endothelial colony-forming cells (ECFCs) and their progenitor cell capacities were characterized as described (Wu, Y et al., J Thromb Haemost, 2010; 8:185-193; Wang, H et al., Circulation research, 2004; 94:843 and Stellos, K et al., Eur Heart J., 2009; 30:584-593). Briefly, human blood was collected from healthy volunteer donors. All volunteers had no risk factors of CVD including hypertension, diabetes, smoking, positive family history of premature CVD and hypercholesterolemia, and were all free of wounds, ulcers, retinopathy, recent surgery, inflammatory, malignant diseases, and medications that may influence EPC kinetics. After dilution with HBSS (1:1), blood was overlaid onto Histopaque 1077 (Sigma-Aldrich Co. LLC, St. Louis, Mo.) in the ratio of 1:1 and centrifuged at 740 g for 30 minutes at room temperature. Buffy coat MNCs were collected and centrifuged at 700 g for 10 minutes at room temperature. MNCs were cultured in collagen type I (BD Bioscience, San Diego) (50 m/ml)-coated dishes with EBM2 basal medium (Lonza Inc., Allendale, N.J.) plus standard EGM-2 SingleQuotes (Lonza Inc., Allendale, N.J.) that includes 2% fetal bovine serum (FBS), EGF (20 ng/ml), hydrocortisone (1 μg/ml), bovine brain extract (12 μg/ml), gentamycin (50 μg/ml), amphotericin B (50 ng/ml), and epidermal growth factor (10 ng/ml). Colonies appeared between 5 and 22 days of culture were identified as a well-circumscribed monolayer of cobblestone-appearing cells. […] After staining, cells were imaged with high-power fields under an inverted fluorescent microscope (Axiovert 200, Carl Zeiss, Thornwood, N.Y.) at 200× magnification and quantified using Image J software. […]
EPC adhesion to extracellular matrix (ECM) was evaluated as previously described. […] Adherent cells were photographed with high-power fields under an inverted fluorescent microscope (Axiovert 200, Carl Zeiss, Thornwood, N.Y.) at 200× magnification and quantified by counting the attached cells using image J.

[2] = tested on: hEPCs; experiment: hEPC scratch wound migration assay
Excerpt: as §1, with “cells. ECFCs with endothelial lineage markers expression, robust proliferative potential, colony-forming, and vessel-forming activity in vitro are defined as EPCs as described (Wang, H et al., Circulation research, 2004; 94:843 and Stellos, K et al., Eur Heart J., 2009; 30:584-593). Passage 4 to 6 EPCs were used for experiments. For a brief characterization, endothelial phagocytosis function was confirmed by incubating EPC in 4-well chamber slide with 1, 1-dioctadecyl-3, 3, 3, 3-tetramethylindocarbocyanine (DiI)-labeled acetylated low-density lipoprotein (acLDL) (Biomedical Technologies, Inc., Stoughton, Mass.) (5 m/ml) at 37° C. for 1 h, washed 3 times for 15 min in PBS, and then fixed with 2% paraformaldehyde for 10 min.” for “cells.”
EPC migration was evaluated using a scratch wound assay as previously described (Tan, H et al., Cardiovascular research, 2006; 69:253-262). […]

[3] = tested on: hEPCs; experiment: hEPC 3H-thymidine incorporation proliferation assay; settings: L-Hcy 50 to 250 μmol/L, 24 h
Excerpt: In this study EPCs refer to endothelial colony-forming cells (ECFCs) and their progenitor cell capacities were characterized as described (Wu, Y et al., J Thromb Haemost, 2010; 8:185-193; Wang, H et al., Circulation research, 2004; 94:843 and Stellos, K et al., Eur Heart J., 2009; 30:584-593). Briefly, human blood was collected from healthy volunteer donors. All volunteers had no risk factors of CVD including hypertension, diabetes, smoking, positive family history of premature CVD and hypercholesterolemia, and were all free of wounds, ulcers, retinopathy, recent surgery, inflammatory, malignant diseases, and medications that may influence EPC kinetics. […] After staining, cells were imaged with high-power fields under an inverted fluorescent microscope (Axiovert 200, Carl Zeiss, Thornwood, N.Y.) at 200× magnification and quantified using Image J software. […]
^3H thymidine incorporation assay was used to detect EPC proliferation activity as previously described (Tan, H et al., Cardiovascular research, 2006; 69:253-262). ^3EPCs were seeded onto 24-well plates (5×10^4 cells/well) in EGM2 medium and exposed to L-Hcy (50 to 250 μmol/L) for 24 h after grown to 70-80% confluence. […] Incorporated [methyl-^3H] thymidine was measured in a liquid scintillation counter (PerkinElmer Inc. Waltham, Mass., USA).

[4] = tested on: hEPCs; experiment: hEPC viability by crystal violet staining; settings: L-Hcy 48 h
Description: Confluent hEPCs were treated with L-Hcy at indicated concentrations for functional studies as described in the section of Methods. FIG. 5A. […] FIG. 5B. Representative images of hEPC adhesion. hEPCs treated with L-Hcy for 48 h were harvested and plated on fibronectin-coated cell culture plates for 1 hour at 37° C. Attached cells were photographed and quantified in high-power fields under an inverted microscope. FIG. 5C. Quantitative analysis of adhesion. FIG. 5D. Representative images of hEPC migration. Confluent hEPCs were incubated with L-Hcy for 48 h, scratched to create a wound and evaluated for migration after 20 h. E. Quantitative analysis of migration. FIG. 5F. Quantitative analysis of hEPC proliferation. 80% confluent hEPCs were treated with L-Hcy for 24 h and labeled with ^3[H]-thymidine for the last 4 h. Incorporated ^3[H]-thymidine was measured in a liquid scintillation counter. FIG. 5G. Quantitative analysis of hEPC viability. Confluent hEPCs were treated with L-Hcy for 48 h and nuclear counts determined by crystal violet staining to determine the viable cells. Data are representative of 3 separate experiments and are shown as mean±SD. *P<0.05 versus control. hEPCs; human endothelial progenitor cells; Hcy, homocysteine.

## N[C@@H](CCS)C(=O)O [L-Hcy, homocysteine]
[1]
  EPC adhesion to fibronectin compared with the control: 57%
[1]; adhesion rescue experiment
  Hcy-suppressed adhesion in hEPC (without 12G10): 62%
[1]; control 0.13±0.006
  EPC adhesion to fibronectin: 0.06±0.008 OD630 nm
[2]; Hcy 100 μmol/L
  hEPC migration (value in brackets): 54.6±2.8
  hEPC migration reduced to: 68%
[2]; Hcy 250 μmol/L
  hEPC migration (value in brackets): 49.7±1.1
  hEPC migration reduced to: 62%
[3]
  DNA synthesis ([3H] thymidine uptake): dose sensitively inhibited
[4]
  EPC viability: no effect
